From US5958947A, “DNA-affinic hypoxia selective cytotoxins” (priority 1996, dated 1999)
Where “and” joins values, the source holds several entries; their conditions need not be identical. Equal values may be shown once. Where a name gives a salt, the structure may show the parent alone. Read-outs that look alike come from different tables or passages of the source.

Key:
[1] = tested on: V79 Chinese hamster lung cells; conditions: intracellular concentration for an SER of 1.6, hypoxic cells; no experiment described; cited from earlier work
[2] = in vivo; cited from earlier work
[3] = Acute aerobic and hypoxic cytotoxicity (colony formation); type: cell-based, Chinese hamster; conditions: chinese hamster, aerobic v79 cells, V79 cells, aerobic, 1 hour, 37° C.; 50% inhibition of clonogenicity
Experimental: (§1) Samples of V79 Chinese hamster lung cells used in the following experiments were prepared as follows. V79 cells, exponentially growing as monolayer cultures in RPMI 1640 medium (Mediatech) supplemented with 10% fetal calf serum, were trypsinized, centrifuged for 5 min, harvested, then suspended in 25 ml Erlenmeyer flasks fitted with rubber caps at 5×10^5 cells/ml (5 ml). Individual flasks either were shaken (100 rpm) at 37° C. under aerobic conditions or made hypoxic by gassing with a 95% N2 (nitrogen)/5% CO2 (carbon dioxide) humidified gas mixture for 1 hour.
(§2) To determine the fraction of surviving cells, samples were removed, diluted and plated to provide 2×10^2 to 2×10^4 cells/well on 60 mm Linbro multi-well plates (Flow Laboratories, McLean, Virginia). The plates were incubated at 37° C. for 6 days, stained with crystal violet and examined for colony formation. Colonies of 50 cells or greater were counted. Each plotted point in FIGS. 1 and 2 represent the mean of three or four replicate experiments.

[4] = tested on: V79 Chinese hamster lung cells; experiment: as above; type: cell-based; conditions: V79 cells, 1 hour, 37° C.; for IC50: Cricetulus griseus, V79, 1 h, hypoxia, 50% inhibition of clonogenicity
Experimental: as §1, §2

[5] = tested on: V79 Chinese hamster lung cells; experiment: Radiosensitization of V79 cells; type: cell-based; conditions: for EC (SER 1.6): Cricetulus griseus; for maximum SER value: hypoxic V79 cells, 100 μM for THNLA-1, non-toxic concentrations for others; for Therapeutic index (ThI): IC50/A,1h /C1.6: in vitro, V79 cells, hydrochloride
Experimental: as §1
Radiosensitization studies were performed on V79 cells in a manner similar to the acute toxicity experiments, except that the survival fraction was determined after a predetermined radiation dose. […] One Gy is equal to 100 rads, wherein one rad is the quantity of ionizing radiation that results in the absorption of 100 ergs of energy per gram of irradiated material. Hypoxia was maintained throughout irradiation. […] Sensitization enhancement ratios (SER) were determined at a 10% survival level. […] The plotted points in FIGS. 3 and 4 represent the mean of 2 or 3 replicate experiments.

[6] = tested on: V79 cells; experiment: Isoeffective to the oxygen dose (IsD); type: cell-based, Chinese hamster; conditions: Cricetulus griseus, V79, 1 h
Source text: The survival fraction under hypoxic conditions (plotted versus compound concentration) meets the aerobic survival fraction (radiation toxicity) at the IsD. The IsD value is a useful indicator of the overall potency of a compound as a sensitizer and cytotoxin of hypoxic cells. IsD is especially useful when comparing different compounds for hypoxic cytotoxicity and radiosensitizing efficacy.
FIGS. 5 and 6 illustrate the IsD at 7.5 Gy (FIG. 5A) and 20 Gy (FIG. 5B). FIGS. 5A and 6A include a comparison to the prior art NLA-1 compound. V79 cells were irradiated at 7.5 Gy or 20 Gy after a 1 hour exposure under hypoxia (symbols) or air (straight line), at various drug concentrations. No toxicity or radiosensitization for any tested compound was observed under aerobic conditions over the tested concentration ranges. IsD values were calculated from the intersections of the survival fractions of the hypoxic curves with the survival fraction in air. All data points in FIGS. 5 and 6 represent the mean of two replicate experiments.

[7] = Partition coefficient in octanol/water; type: physicochemical
Experimental: The partition coefficient of the hypoxia selective cytotoxins of the present invention were determined by the method of T. Fujita et al., J. Am. Chem. Soc., 86, 5175-5180 (1964), incorporated herein by reference.

[8] = molecular target: T1, calf thymus Topo I (Bos taurus, UniProt F1MN93); experiment: Topoisomerase I interaction (relaxation of supercoiled DNA); type: biochemical
T1 construct: purchased TopoGEN, Inc., Columbus, Ohio; host or cells: calf thymus
T1 sequence (F1MN93 1-767): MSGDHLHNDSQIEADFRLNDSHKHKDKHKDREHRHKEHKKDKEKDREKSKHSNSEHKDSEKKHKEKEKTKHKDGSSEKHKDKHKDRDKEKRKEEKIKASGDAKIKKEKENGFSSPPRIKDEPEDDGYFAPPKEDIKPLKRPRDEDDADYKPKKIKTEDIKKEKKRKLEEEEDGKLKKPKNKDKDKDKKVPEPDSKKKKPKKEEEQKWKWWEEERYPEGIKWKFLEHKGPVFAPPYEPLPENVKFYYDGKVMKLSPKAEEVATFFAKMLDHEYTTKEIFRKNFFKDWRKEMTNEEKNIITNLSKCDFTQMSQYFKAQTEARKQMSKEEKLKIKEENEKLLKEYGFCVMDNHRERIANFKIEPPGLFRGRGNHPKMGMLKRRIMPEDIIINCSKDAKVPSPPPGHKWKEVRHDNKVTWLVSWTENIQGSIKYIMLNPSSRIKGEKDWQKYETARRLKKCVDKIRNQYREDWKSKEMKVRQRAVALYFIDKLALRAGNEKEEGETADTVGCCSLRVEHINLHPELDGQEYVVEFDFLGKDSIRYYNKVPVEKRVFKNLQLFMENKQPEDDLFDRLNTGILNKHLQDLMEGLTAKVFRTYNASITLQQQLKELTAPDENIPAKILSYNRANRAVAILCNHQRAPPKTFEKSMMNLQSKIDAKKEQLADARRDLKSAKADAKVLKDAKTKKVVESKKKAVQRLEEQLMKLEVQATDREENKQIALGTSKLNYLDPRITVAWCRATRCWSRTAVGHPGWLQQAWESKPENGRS
Experimental: In particular, a Topo I drug screening kit (TopoGEN, Inc., Columbus, Ohio) was used to assay the topoisomerase I THNLA-1 interaction. […] Camptothecin is a Topoisomerase I poison used as an anticancer drug. Camptothecin stabilizes the Topo I-DNA cleavable complex, and therefore prevents the resealing of DNA by Topo-I.
Individual reaction mixtures were heated for 30 minutes at 37° C. on a heating block, and then 2 μl of 10% SDS - proteinase K solution was added to each reaction mixture. The resulting reaction mixtures then were heated for an additional 30 minutes at 37° C. The reaction mixtures in a loading buffer were extracted with CHCl3 prior to submarine electrophoresis on a 1% agarose gel. The DNA bands were observed visually by staining with ethidium bromide (0.5 μg/ml).

[9] = tested on: human Topo II; experiment: Topoisomerase II interaction (decatenation of kinetoplast DNA); type: biochemical; conditions: up to 1 mM
Experimental: A Topo II assay kit (TopoGEN, Inc., Columbus, Ohio) also was used to assay the topoisomerase II--THNLA-1 interaction. […] Individual reaction mixtures were heated for 30 minutes at 37° C. on a heating block, and then 2 μl of a 10% SDS-proteinase K solution was added to each reaction mixture. The resulting reaction mixtures then were heated for an additional 30 minutes at 37° C. After addition of a 0.1 volume of loading buffer, the reaction mixtures were extracted with CHCl3 prior to submarine electrophoresis on a 1% agarose gel containing ethidium bromide (0.5 μg/ml).

[10] = tested on: supercoiled DNA; experiment: DNA intercalation by agarose gel electrophoresis (mobility of supercoiled DNA); type: binding; conditions: electrophoretic gel, up to millimolar concentrations
Source text: An agarose gel electrophoresis technique was used to determine whether THNLA-1 intercalates DNA. Compounds that strongly intercalate DNA retard DNA mobility during agarose gel electrophoresis due to unwinding and extension of the dsDNA.

[11] = Water solubility
[12] = tested on: V79 cells; experiment: Chemosensitization to L-PAM or cis-DDP in V79 cells; type: cell-based, Chinese hamster; conditions: V79 cells
Experimental: L-PAM, also known as phenylalanine mustard and available from Sigma Chem. Co., St. Louis, Mo., first was dissolved in an ethanolic solution of HCl (0.5N). The ethanolic HCl solution was buffered with propylene glycol in a 1:9 ratio of ethanolic HCl solution to propylene glycol, and finally diluted 100 fold with suspension medium. cis-DDP, a platinum-based chemotherapeutic agent available from Sigma Chem. Co., St. Louis, Mo., was dissolved in water to a predetermined concentration.
Experiments using a simultaneous addition of the sensitizer and chemotherapeutic agent for 1 hour at 37° C. under aerobic conditions were also performed.
In all experiments, controls for the hypoxic cytotoxicity of the sensitizer and the toxicity of the chemotherapeutic alone were included. Survival curves were normalized for the hypoxic cytotoxicity of sensitizer in order to determine the dose modification factor (DMF), i.e., the ratio of chemotherapeutic agent concentrations required to reduce cell survival to a predetermined level (e.g., 0.5) alone or in combination with a sensitizer. Synergism between the chemotherapeutic agent and the chemosensitizer was determined using the fractional product concept which is applied in instances of independent action of drugs, or by isobologramic analysis. The results of the chemosensitization studies are illustrated in FIGS. 12-15.

[13] = tested on: hypoxic cells; conditions: cited from earlier work
[14] = tested on: DNA; conditions: cited from earlier work
[15] = tested on: mammalian cell cultures; conditions: cited from earlier work
[16] = cited from earlier work
[17] = V79, 1 h, read-out: Hypoxic radiosensitizing potency: C1.6, concentration yielding an SER of 1.6, hypoxic V79 cells
[18] = V79, read-out: Intracellular concentration at C1.6: C1.6i, hypoxic radiosensitization, V79 cells (tables)

Compound: COCC(O)Cn1ccnc1[N+](=O)[O-] (centres unmarked) [MISO]
- C1.6i of comparison sensitizers [1]: 0.70 mM
- neurotoxicity [2]: significant neurotoxicity

Compound: CN1CCc2nc3ccccc3c(NCCCn3ccnc3[N+](=O)[O-])c2C1 [MeN-THNLA-1, 10-[3-(2-nitroimidazolyl)propylamino]-2-methyl-1,2,3,4-tetrahydro-benzo[b]-1,6-naphthyridine hydrochloride]
- IC50 at 1 h [3]: 426 µM
- IC50 [4]: 196 µM
- Hypoxic selectivity (differential aerobic/hypoxic toxicity): IC50/A,1h /IC50/H,1h [4]: 2.2
- EC (SER 1.6) [5, 17]: 59 µM
- EC (SER 1.6) [5, 18]: 586 µM
- maximum SER value [5]: equal to OER
- Therapeutic index (ThI): IC50/A,1h /C1.6 [5]: about 7
- relative radiosensitizing potency ([5]; on the basis of C1.6i values): more potent radiosensitizer than NLA-1, miso and pimonidazole
- EC (isoeffective to oxygen at 20 Gy) ([6]; read-out: Isoeffective to the oxygen dose at 20 Gy: IsD): ~127 µM
- Partition coefficient in octanol/water: PCo/w ([7]; hydrochloride): 0.40 and 0.41
- formation of nicked DNA with Topo I ([8]; in Topo I test): no formation of nicked DNA was observed
- inhibition of Topo I-induced relaxation ([8]; supercoiled DNA): only partially inhibited Topo I
- inhibition of Topo II-induced decatenation of kinetoplast DNA [9]: did not inhibit the action of Topoisomerase II on kinetoplast DNA
- effect on mobility of supercoiled DNA [10]: do not affect the mobility of supercoiled DNA
- solubility [11]: ~20 mM

Compound: O=[N+]([O-])c1nccn1CCCNc1c2c(nc3ccccc13)CCC2 [NLCPQ-1, 9-[3-(2-nitro-1-imidazolyl)propylamino]cyclopenten[b]quinoline hydrochloride]
- IC50 at 1 h [3]: 170 µM
- IC50 [4]: 22 µM
- EC (SER 1.6) [5, 17]: 7 µM
- EC (SER 1.6) [5, 18]: 209 µM
- maximum SER value [5]: equal to OER
- Therapeutic index (ThI): IC50/A,1h /C1.6 [5]: 25
- EC (isoeffective to oxygen at 7.5 Gy) ([6]; read-out: Isoeffective to the oxygen dose at 7.5 Gy: IsD(7.5)): 25.5 µM
- Partition coefficient in octanol/water: PCo/w [7]: 0.30
- logP ([7]; read-out: Partition coefficient in octanol/water: PCo/w (converted)): -0.523
- chemosensitization to L-PAM or cis-DDP [12]: strong chemosensitizers
- solubility [11]: ~11 mM

Compound: O=[N+]([O-])c1nccn1CC(O)CN1CC1 (centres unmarked) [RSU-1069]
- activity relative to MISO ([13]; experimental systems): substantially greater activity than MISO
- fold lower toxic concentration for hypoxic versus aerobic cells ([13]; in vitro): ~100 fold

Compound: O=C(Cn1ccnc1[N+](=O)[O-])NCCO [etanidazole]
- dose administrable to humans relative to MISO [2]: about a threefold higher dose than MISO
- neurotoxicity [2]: less neurotoxic

Compound: CN(C)CCCNc1c2ccccc2nc2cccc([N+](=O)[O-])c12 [nitracrine, 1-nitro-acridine]
- DNA dissociation kinetics / intercalation [14]: faster dissociation kinetics from DNA than the other nitroacridine isomers
- potency as radiation sensitizer / hypoxia selective cytotoxin [15]: potent hypoxia selective cytotoxin and a radiation sensitizer
- potency as radiation sensitizer / hypoxia selective cytotoxin ([15]; listed as 1-nitracrine): twenty times more potent as a sensitizer than other nitracrine isomers tested
- metabolism in vivo [16]: rapid metabolism

Compound: O=[N+]([O-])c1nccn1CC(O)CN1CCCCC1 (centres unmarked) [pimonidazole]
- C1.6i of comparison sensitizers [1]: 0.69 mM
- dose administrable to humans relative to MISO [2]: total dose limitation similar to MISO
